Here are results for 16 compounds from PubChem BioAssay (NCI).

Test systems include CCRF-CEM leukemia; SN12C renal; PC-3 prostate; LOX IMVI melanoma; MALME-3M melanoma; HCC-2998 colon; OVCAR-3 ovarian; SF-295 CNS; RXF 393 renal; NCI-H226 lung.
Common to all, as to assay: NCI tumour cell line growth inhibition, 48 h

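These data come from cells grown in 96-well plates and exposed to compound for 48 hours at five concentrations. At the TGI there is no net growth.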

For `COC(=O)/C=C/c1cc(OC)c2oc(-c3ccc(OC)c(OC)c3)c(C(=O)OC)c2c1`, the TGI in the assay with CCRF-CEM leukemia, with SN12C renal, in the assay on PC-3 prostate, in the assay with LOX IMVI melanoma, in the assay with MALME-3M melanoma and in the assay with HCC-2998 colon was over 100 µM throughout. The TGI with OVCAR-3 ovarian and in the assay on SF-295 CNS was over 100 µM in each case.

With `CCCCc1c2c(nc3c1CCc1cc4cc5c(nc4nc1-3)-c1nc3c(c(CCCC)c1CC5)CCC/C3=C\c1ccccc1)/C(=C/c1ccccc1)CCC2`, the TGI in the assay with CCRF-CEM leukemia, in the assay with SN12C renal, with LOX IMVI melanoma, with MALME-3M melanoma, with RXF 393 renal and with HCC-2998 colon was over 100 µM each time. The TGI in the assay with OVCAR-3 ovarian, with NCI-H226 lung and in the assay on SF-295 CNS was over 100 µM throughout.

For the compound `CN(C)Cc1cc(C(=O)/C=C/c2cccc(Cl)c2)cc(CN(C)C)c1O`, the TGI in the assay with CCRF-CEM leukemia came to 8.25 µM; with SN12C renal, 11.4 µM; in the assay with PC-3 prostate, 22.8 µM; with LOX IMVI melanoma it was 10.9 µM; in the assay on RXF 393 renal, 23.6 µM; with HCC-2998 colon, 23.8 µM. Further, the figures for the TGI in the assay with OVCAR-3 ovarian, in the assay on NCI-H226 lung and with SF-295 CNS were 9.21 µM, 19.6 µM and 27 µM, respectively.

As to `CC1=C[C@@H](C)C[C@]2(C)CC[C@H](O2)[C@]23CC[C@](C)(C[C@H](O2)[C@@H]2O[C@@](C)(CC2=O)[C@@H](O)[C@H]2CC[C@@]4(CCC[C@@H](O4)[C@H](C)C(=O)O[C@H]4C[C@H]([C@]5(O)OCC[C@H](C)[C@@H]5O)O[C@H]4C=C1)O2)O3`, the TGI in the assay with LOX IMVI melanoma was over 10 µM; with RXF 393 renal, 0.00747 µM; in the assay on HCC-2998 colon it was over 10 µM; in the assay with OVCAR-3 ovarian, 0.02 µM.

`Cc1occ2c1C(=O)CC1C2[C@@H](O)CC2C(C)(C)CCC[C@]12C` (some centres undefined): the TGI in the assay with CCRF-CEM leukemia, in the assay on SN12C renal, in the assay with MALME-3M melanoma, with RXF 393 renal, in the assay with HCC-2998 colon and in the assay with NCI-H226 lung was over 100 µM each time. This compound also returned a TGI in the assay on SF-295 CNS of over 100 µM.

`CC(=O)Nc1ccc(C(=O)N2N=C(C)/C(=C/c3cccc([N+](=O)[O-])c3)C2=O)cc1`: the TGI in the assay on CCRF-CEM leukemia, in the assay with SN12C renal, with LOX IMVI melanoma, with MALME-3M melanoma, with HCC-2998 colon and with OVCAR-3 ovarian was over 100 µM throughout. Besides, the TGI with NCI-H226 lung and in the assay on SF-295 CNS was over 100 µM in each case.

For the compound `O=C(COc1ccc(Cl)cc1)N1CCN(C(=O)COc2ccc(Cl)cc2)c2ccccc21`, the TGI in the assay with CCRF-CEM leukemia, in the assay on LOX IMVI melanoma, in the assay with MALME-3M melanoma, in the assay with RXF 393 renal, in the assay with HCC-2998 colon and in the assay with OVCAR-3 ovarian was over 100 µM in each case. In the assay on SF-295 CNS, the TGI was over 100 µM.

`Nc1ccc(C(=O)NN2C(=O)C(Cl)C2c2cccc(O)c2)cc1` (centres undefined): the TGI was determined as 28.9 µM with CCRF-CEM leukemia; 32.3 µM in the assay on SN12C renal; 16.2 µM in the assay on LOX IMVI melanoma; 36.7 µM with MALME-3M melanoma; 29.8 µM with HCC-2998 colon; 29.9 µM in the assay with OVCAR-3 ovarian. Further, the results for the TGI in the assay with NCI-H226 lung and in the assay with SF-295 CNS were 41.4 µM and 35.2 µM, respectively.

On to `C#CCSc1nc(N)c2ncn(C3OC(COP(=O)(O)O)C(O)C3O)c2n1` (centres undefined), for which the TGI in the assay on CCRF-CEM leukemia, with SN12C renal, in the assay with LOX IMVI melanoma, in the assay with MALME-3M melanoma, in the assay with HCC-2998 colon and in the assay with OVCAR-3 ovarian was over 239 µM in each case. For the same compound, the TGI with NCI-H226 lung and in the assay with SF-295 CNS was over 239 µM throughout.

Consider `CC(=O)C12C[C@](C#N)(N3CCCCCC3)C1C=Cc1ccccc12` (some centres undefined), for which the TGI in the assay on CCRF-CEM leukemia, with SN12C renal, in the assay with PC-3 prostate, with RXF 393 renal, in the assay with HCC-2998 colon and in the assay on OVCAR-3 ovarian was over 100 µM each time. The TGI in the assay with NCI-H226 lung and with SF-295 CNS was over 100 µM in each case.

In the case of `COc1cc(/C=C2\Cc3cc(OC)c(OC)cc3C2=O)cc(OC)c1`, the TGI in the assay with CCRF-CEM leukemia was over 100 µM; with SN12C renal, over 100 µM; in the assay with PC-3 prostate, over 100 µM; with LOX IMVI melanoma it was over 100 µM; in the assay on MALME-3M melanoma it was over 100 µM; in the assay on RXF 393 renal, 57.1 µM. For the same compound, the TGI is over 100 µM with OVCAR-3 ovarian, over 100 µM with NCI-H226 lung and 41.7 µM with SF-295 CNS.

For `CSc1nc(C#N)c(N)n1C`, the TGI in the assay on CCRF-CEM leukemia, with SN12C renal, with PC-3 prostate, with LOX IMVI melanoma, with MALME-3M melanoma and in the assay with RXF 393 renal was over 100 µM throughout. Also, the TGI in the assay with OVCAR-3 ovarian, with NCI-H226 lung and in the assay on SF-295 CNS was over 100 µM in each case.

Turning to `CCN1CCCC(Nc2cc(C)nc(/N=C(/N)Nc3ccc(Cl)c(Cl)c3)n2)C1` (centres undefined), the TGI in the assay with CCRF-CEM leukemia worked out at 2.4 µM; with SN12C renal, 6.64 µM; in the assay on MALME-3M melanoma, 4.02 µM; in the assay with HCC-2998 colon, 1.89 µM; in the assay with OVCAR-3 ovarian it was 3.59 µM; in the assay with SF-295 CNS, 2.41 µM.

In the case of `COc1cc(C(c2cccc3ccccc23)N2C(=O)CCC2C(=O)NCc2ccccc2)cc(OC)c1OC` (centres undefined), the TGI in the assay on CCRF-CEM leukemia, in the assay on SN12C renal, in the assay with LOX IMVI melanoma, in the assay on MALME-3M melanoma, in the assay with RXF 393 renal and in the assay on HCC-2998 colon was over 100 µM in each case. Moreover, the TGI with OVCAR-3 ovarian, with NCI-H226 lung and in the assay on SF-295 CNS was over 100 µM throughout.

For the compound `C=CCC1(CC)C(=O)NC(=O)NC1=O`, the TGI with CCRF-CEM leukemia, in the assay on SN12C renal, with LOX IMVI melanoma, with MALME-3M melanoma, in the assay on RXF 393 renal and in the assay on HCC-2998 colon was over 100 µM throughout. The TGI with OVCAR-3 ovarian and in the assay with NCI-H226 lung was over 100 µM throughout.

On to `N#Cc1c(Nc2nc3ccccc3s2)c2ccccc2n2c1nc1ccccc12`, for which the TGI in the assay with SN12C renal, with PC-3 prostate, in the assay on LOX IMVI melanoma, in the assay on MALME-3M melanoma, in the assay with HCC-2998 colon and in the assay with OVCAR-3 ovarian was over 100 µM each time. The same compound yielded a TGI in the assay on SF-295 CNS of over 100 µM.
